Experimental findings from ChEMBL document CHEMBL1255551, “Synthesis and biological evaluation of C-2 halogenated analogs of salvinorin A” (Bioorg Med Chem Lett, 2010) are described below.

By Ki is commonly meant a dissociation constant, usually derived from enzyme kinetics or from competition with a known ligand. Low values mean a stronger hold on the target, high ones a looser hold on the target. As usually defined, the inhibition is the relative decrease from the control value, in per cent. Read a high inhibition as a strong effect. The term EC50 denotes the concentration at which the effect is half-maximal. Usually Emax stands for the maximal effect, on the per cent scale that the assay sets.

The target of assay [1] is Delta-type opioid receptor (Mus musculus) (UniProt P32300). The assay is described as follows: Displacement of [3H]diprenorphine from mouse FLAG-tagged delta opioid receptor expressed in CHO cells at 3 uM. It is filed as cell-based. A general note: In a radioligand displacement assay an active substance lowers the binding of a labelled ligand.
Delta-type opioid receptor (Mus musculus), sequence (P32300 whole entry): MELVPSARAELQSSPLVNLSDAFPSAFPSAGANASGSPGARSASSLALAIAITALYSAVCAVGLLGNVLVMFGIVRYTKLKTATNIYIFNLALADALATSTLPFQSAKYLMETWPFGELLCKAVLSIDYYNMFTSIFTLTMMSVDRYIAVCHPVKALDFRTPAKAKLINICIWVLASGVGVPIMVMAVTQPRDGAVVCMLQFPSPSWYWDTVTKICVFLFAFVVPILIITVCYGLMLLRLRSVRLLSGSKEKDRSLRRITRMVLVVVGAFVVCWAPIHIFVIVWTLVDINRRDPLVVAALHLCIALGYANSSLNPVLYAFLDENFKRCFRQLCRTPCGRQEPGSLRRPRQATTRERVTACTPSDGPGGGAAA
Assay [2] addresses Mu-type opioid receptor (Rattus norvegicus) (UniProt P33535). As to the kind of experiment: Displacement of [3H]diprenorphine from rat mu opioid receptor expressed in CHO cells at 3 uM. It is filed as cell-based.
Assay [3] addresses T1, Kappa-type opioid receptor (Homo sapiens, UniProt P41145). The assay is described as follows: Displacement of [3H]diprenorphine from human kappa opioid receptor expressed in CHO cells. It is filed as cell-based.
For assay [4], the target named is T1, Kappa-type opioid receptor. The assay is described as follows: Displacement of [3H]diprenorphine from human kappa opioid receptor expressed in CHO cells at 3 uM. It is filed as cell-based.
Assay [5] concerns the target T1, Kappa-type opioid receptor. As to the kind of experiment: Agonist activity at human kappa opioid receptor expressed in CHO cells assessed as increase of [35S]GTPgammaS binding. It is filed as functional, cell-based. In general terms: GTPγS resists hydrolysis and so accumulates on activated G proteins.
Assay [6] concerns the target T1, Kappa-type opioid receptor. The assay is described as follows: Agonist activity at human kappa opioid receptor expressed in CHO cells assessed as increase of [35S]GTPgammaS binding at 240 nM relative to U50488H. It is filed as functional, cell-based.

Each structure is given as a SMILES string. Calls of active or inactive are those of the source. The calls are words filed in the database; no cut-off is given here.

Mu-type opioid receptor (Rattus norvegicus), sequence (P33535 whole entry): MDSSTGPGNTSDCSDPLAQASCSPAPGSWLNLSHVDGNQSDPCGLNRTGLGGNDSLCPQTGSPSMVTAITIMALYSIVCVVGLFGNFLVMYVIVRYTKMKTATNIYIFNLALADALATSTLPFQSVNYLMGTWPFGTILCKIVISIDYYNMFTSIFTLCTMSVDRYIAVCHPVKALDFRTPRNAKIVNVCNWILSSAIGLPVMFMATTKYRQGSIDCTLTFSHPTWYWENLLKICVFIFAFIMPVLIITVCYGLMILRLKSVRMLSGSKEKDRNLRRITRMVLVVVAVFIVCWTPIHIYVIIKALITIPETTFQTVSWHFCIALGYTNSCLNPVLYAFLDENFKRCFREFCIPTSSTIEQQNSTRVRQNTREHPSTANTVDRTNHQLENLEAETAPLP
T1 sequence (P41145 whole entry): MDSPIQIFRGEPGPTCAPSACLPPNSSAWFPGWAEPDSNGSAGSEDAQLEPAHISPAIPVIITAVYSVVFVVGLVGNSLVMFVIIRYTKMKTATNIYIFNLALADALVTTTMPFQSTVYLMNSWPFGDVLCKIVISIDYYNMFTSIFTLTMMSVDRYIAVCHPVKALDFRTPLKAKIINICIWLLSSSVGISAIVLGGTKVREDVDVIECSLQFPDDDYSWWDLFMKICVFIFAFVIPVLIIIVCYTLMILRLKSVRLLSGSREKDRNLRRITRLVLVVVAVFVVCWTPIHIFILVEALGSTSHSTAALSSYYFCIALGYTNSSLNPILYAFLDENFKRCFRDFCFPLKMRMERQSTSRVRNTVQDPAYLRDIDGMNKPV

In the case of `COC(=O)[C@@H]1C[C@@H](Br)C2=C3[C@@](C)(C[C@H](c4ccoc4)O2)C(C(=O)O)CC[C@]31C` (stereo partly drawn), the outcome in assay [1] and in assay [2] was inactive. In addition, in assay [3], the Ki is over 1000 nM. Further, the inhibition in assay [4] is over 50%.

On to `COC(=O)[C@@H]1C[C@H](OC(C)=O)C(=O)[C@H]2[C@@]1(C)CC[C@H]1C(=O)O[C@H](c3ccoc3)C[C@]21C`, for which the outcome in assay [1] and in assay [2] was inactive. This compound showed an inhibition in assay [4] of over 50%.

In the case of `COC(=O)[C@@H]1C[C@H](Cl)C(=O)[C@H]2[C@@]1(C)CC[C@H]1C(=O)O[C@H](c3ccoc3)C[C@]21C`, the outcome in assay [1] and in assay [2] was inactive. The same compound displayed a Ki in assay [3] of over 1000 nM. Also, the inhibition in assay [4] was over 50%.

With `COC(=O)[C@@H]1C[C@@H](Cl)C(=O)[C@H]2[C@@]1(C)CC[C@H]1C(=O)O[C@H](c3ccoc3)C[C@]21C`, the outcome in assay [1] and in assay [2] was inactive. In addition, the EC50 in assay [5] is 673 nM. In assay [3], this compound registered a Ki of 167 nM. Also, the Emax in assay [6] worked out at 112%. Moreover, the inhibition in assay [4] was over 50%.

In the case of `COC(=O)[C@@H]1C[C@@H](I)C(=O)[C@H]2[C@@]1(C)CC[C@H]1C(=O)O[C@H](c3ccoc3)C[C@]21C`, the result in assay [1] and in assay [2] was inactive. The concentration for a half-maximal effect (EC50) in assay [5] amounted to 239 nM. In assay [3], this compound gave a Ki of 245 nM. In addition, the Emax in assay [6] is 46%. Also, the inhibition in assay [4] is over 50%.

As for `COC(=O)[C@@H]1CC(C(=O)O)C(=O)[C@H]2[C@@]1(C)CC[C@H]1C(=O)O[C@H](c3ccoc3)C[C@]21C` (stereo partly drawn), the outcome in assay [1] and in assay [2] was inactive. The EC50 in assay [5] was 83.3 nM. Also, the Ki in assay [3] was determined as 24.3 nM. Further, the maximal response (Emax) in assay [6] amounted to 103%. The same compound gave an inhibition in assay [4] of over 50%.

Turning to `COC(=O)[C@@H]1C[C@H](Br)C(=O)[C@H]2[C@@]1(C)CC[C@H]1C(=O)O[C@H](c3ccoc3)C[C@]21C`, the outcome in assay [1] and in assay [2] was inactive. Moreover, the EC50 in assay [5] turned out to be 1970 nM. Also, the inhibition constant Ki in assay [3] came to 422 nM. Moreover, in assay [6], the Emax was 87%. This compound also registered an inhibition in assay [4] of over 50%.

On to `COC(=O)[C@@H]1C[C@@H](Br)C(=O)[C@H]2[C@@]1(C)CC[C@H]1C(=O)O[C@H](c3ccoc3)C[C@]21C`, for which the result in assay [1] and in assay [2] was inactive. Moreover, the EC50 in assay [5] is 282 nM. Besides, the Ki in assay [3] came out at 42.3 nM. For the same compound, the Emax in assay [6] amounted to 90%. For the same compound, in assay [4], the inhibition was over 50%.

With `COC(=O)[C@@H]1C[C@@H](F)C(=O)[C@H]2[C@@]1(C)CC[C@H]1C(=O)O[C@H](c3ccoc3)C[C@]21C`, the outcome in assay [1] and in assay [2] was inactive. The EC50 in assay [5] is 539 nM. The compound further came in with a Ki in assay [3] of 197 nM. The Emax in assay [6] is 77%. In assay [4], this compound gave an inhibition of over 50%.

For the compound `COC(=O)[C@@H]1CCC(=O)[C@H]2[C@@]1(C)CC[C@H]1C(=O)O[C@H](c3ccoc3)C[C@]21C`, the outcome in assay [1] and in assay [2] was inactive. For the same compound, the EC50 in assay [5] stood at 266 nM. The same compound returned a Ki in assay [3] of 51.6 nM. Also, the Emax in assay [6] was 124%. The inhibition in assay [4] was over 50%.

`COC(=O)[C@@H]1C[C@H](F)C(=O)[C@H]2[C@@]1(C)CC[C@H]1C(=O)O[C@H](c3ccoc3)C[C@]21C`: the result in assay [1] and in assay [2] was inactive. Also, the Ki in assay [3] is over 1000 nM. In assay [4], the inhibition was over 50%.

As for `COC(=O)[C@@H]1C[C@H](I)C(=O)[C@H]2[C@@]1(C)CC[C@H]1C(=O)O[C@H](c3ccoc3)C[C@]21C`, the outcome in assay [1] and in assay [2] was inactive. Also, in assay [5], the EC50 was 648 nM. The Ki in assay [3] came out at 198 nM. The Emax in assay [6] came to 92%. For the same compound, the inhibition in assay [4] was over 50%.
